Assay results published in patent US20250042884A1, “3-ARYLOXYL-3-FIVE-MEMBERED HETEROARYL PROPYLAMINE COMPOUND AND USE THEREOF” (Shanghai Leado Pharmatech Co. Ltd., priority 2018, published 2025).

Experiments:
Sprague-Dawley rats = assay: Rat hot plate pain model (acute pain); type: in vivo; settings: 30 mg/kg intraperitoneal, hydrochloride salt
Protocol: Sprague-Dawley male, mature and unmated rats were placed at hot and cold plate (product model: PE34, US IITC) with constant 53±0.1° C. Mice with painful response such as licking claw, shaking claw or slightly jumping within 10-30 s were selected, and mice which evaded and jumped were abandoned. […] The test compound was freshly prepared on the day of administration. 0.9% NaCl physiological saline solution was prepared as solvent for later use. Appropriate amount of test compound was added into required volume of physiological saline and fully suspended, and the concentration of prepared drug was 1 mg/ml. […] After administration, the latency of heat pain was measured at 0.5 h, 1 h and 2 h after administration. In order to prevent animals from being scalded on the hot plate, the maximum incubation time was set to 30 s. Maximum possible effect (MPE) % was used to evaluate analgesic effect of each compound, i.e., MPE %=[(Post drug latency−baseline latency)/(30−baseline latency)]×100. MPE % at different time points was recorded.

SD rats = assay: Rat SNL model, mechanical allodynia test (nerve pain); type: in vivo; settings: 1 h after administration, 10 mg/kg oral, hydrochloride salt; control group 3.967 ± 0.775
Protocol: Male SPF grade SD rats, weighed 150 g-180 g, were selected. Aseptic operation during surgery was performed. The animals were anesthetized with sodium pentobarbital (50 mg/kg, intraperitoneal injection). The surgical area of animal waist was shaved and the skin was disinfected three times with iodophor and 70% ethanol. After the skin was dried, the operation was started. Surgical knife was used to make a longitudinal incision at the back of the sacrum of the animal waist to expose the left paraspinal muscles, and stretcher was used to separate muscle tissue to expose the spine. The left spinal nerves L5 and L6 were separated and ligated with a 6-0 silk thread, and the wound was sutured. After the operation, the animals were placed on electrothermal pad, and 5 mL of saline was injected subcutaneously to prevent dehydration. After the animals were fully awakened and could move around freely, the animals were put back in the cage.
After the operation, the animals were adapted in the experimental environment for 15min/day for 3 days.
The animals were weighed to calculate the dose. […] After administration, mechanical allodynia test was performed. The rat was individually placed in a plexiglass box with a grid on the bottom of the box to ensure that the rat claw could be tested. The rats were allowed to adapt the environment for 15 min before test. After the adaptation was completed, the test fiber was used to test the center of the left hind claw of the rat. The test fiber comprises 8 test strengths: 3.61 (0.4 g), 3.84 (0.6 g), 4.08 (1 g), 4.31 (2 g), 4.56 (4 g), 4.74 (6 g), 4.93 (8 g), and 5.18 (15 g). […] During the test, rapid withdrawal of animal claw was recorded as pain response. When the test fiber was removed from animal skin, the withdrawal of animal claw was also recorded as pain response. If animal moved, the pain response was not recorded, and the test was repeated. […]
Mechanical allodynia was expressed as withdrawal threshold (PWT) in rat behavioral test, which was calculated with the following formula: […]

HepG-2 cells = assay: Cytotoxicity test (CCK-8), hepatotoxicity; type: cell-based; settings: HepG2 cell, 72 h
Protocol: (§1) In this example, hepatotoxicity and neurotoxicity of compound I-1 and S-duloxetine were detected.
(§2) HepG-2 and SH-SY5Y cells were placed in 10 cm dish and cultured at 37° C., 5% CO2 in a cell incubator. Trypsin was used to digest and resuspend cells and cells were counted. The cells were transferred to 96-well plate with 8000 cells in a well (100 μl/well), cultured at 37° C., 5% CO2 in a cell incubator for 24 hrs. A serial of gradient concentration dilutions of compound I-1 (prepared in example 2 of the present invention) with 2-fold dilution were prepared, and the system was 100 μL/well. The supernatant of cell culture system in the 96-well plate was removed on the first day, and fresh-prepared drug concentration system was add into culture plate wells (duplicate wells were set). The cells were cultured at 37° C., 5% CO2 in a cell incubator for 72 h. […] Microplate reader was used to measure the absorbance at 450 nm. Data was processed to calculate cytotoxicity, and IC50 was calculated by GraphPad Prism. […]
(§3) A (Dosing): the absorbance of wells containing cells, CCK-8 solution and drug solution.
(§4) A (control): the absorbance of wells containing medium and CCK-8 solution and without cells.
(§5) A (0 Dosing): the absorbance of wells containing cells and CCK-8 solution but without drug solution […]

SH-SY5Y cells = assay: Cytotoxicity test (CCK-8), neurotoxicity; type: cell-based; settings: 72 h
Protocol: as §1, §2, §3, §4, §5

ICR mice = assay: Mice acetic acid writhing pain model (visceral and inflammatory pain); type: in vivo; settings: 1 h before acetic acid, saline group 49 times
Protocol: Male ICR mice, 22-25 g, were fasted but allowed to drink water freely for 2 h before administration. All ICR mice were weighed and grouped randomly, each group had >10 animals. […] The drug was administrated by gavage based on the weight of mice. 1.5% acetic acid solution (0.1 ml/10 g) was injected intraperitoneally 1 h after administration, and the number of times of visceral pain in each group was observed within 30 min. When concave abdomen, stretched trunk and hind claw, and high buttocks appeared, one number point was recorded. Finally, the number of appearance of the above phenomenon was counted within 30 minutes.

C57BL/6 mice = assay: Mice formalin pain model (acute and inflammatory pain); type: in vivo; settings: for Licking claw time (s) in phase II (10-60 min): hydrochloride salt, blank vehicle 349.55 ± 43.09
Excerpt: 150 C57BL/6 mice (male, 9-week aged) were randomly divided into 15 groups, (each group had 10 mice) for the analgesic activity test of 3 compounds in the mice formalin pain model respectively: the compound I-1 group (compound I-1 prepared in Example 2 whose hydrochloride salt was used in the experiment), the S-duloxetine group (its hydrochloride salt was used in the experiment) and the compound C1 group (the compound C1 prepared in Comparative Example 1, whose hydrochloride salt was used in the experiment). Before the start of experiments, the mice were allowed to adapt to the experimental environment for 72 h with free feeding and drinking water. The test drugs were administrated by intraperitoneal injection at a dosage as follows:
Compound I-1 group: blank vehicle (blank saline control), 0.1 mg/kg, 0.5 mg/kg, 1 mg/kg, 5 mg/kg and 10 mg/kg;
S-duloxetine group: blank vehicle (blank saline control), 1 mg/kg, 5 mg/kg, 10 mg/kg and 20 mg/kg;
Compound C1 group: blank vehicle (blank saline control), 0.1 mg/kg, 0.5 mg/kg, 1 mg/kg, 5 mg/kg and 10 mg/kg.
After administration, the mice were placed in a transparent, ventilated plexiglass cylinder for 1 h, and then 20 μl of 4% formalin solution was injected into the left hind plantar of mice of each group by microinjector, claw pain response in mice were real-time recorded by a mini-camera. The time length of licking left claw were used as an indicator of pain response, licking time in 0-10 min (phase I) and 10-60 min (phase II) were observed and recorded, and the statistical analysis was conducted. The half effective dose (ED50) of 3 compounds were calculated: ED50 referred to the dose of the drug which decreased licking time by half as compared with the blank control group. The smaller the ED50 value was, the lower the effective analgesic dose of the compound was and the better the analgesic effect was.

Work on `CNCC[C@H](Oc1cccc2ccccc12)c1cccs1` [S-duloxetine] yielded an MPE % (Sprague-Dawley rats; 0.5 h after administration) of 5.75 ± 5.74%, an MPE % (Sprague-Dawley rats; 1 h after administration) of 7.44 ± 5.12% and an MPE % (Sprague-Dawley rats; 2 h after administration) of 13.53 ± 4.99%. For the same compound, the “PWT(g), claw withdrawal threshold” value (SD rats) was 6.519 ± 2.226 g, the IC50 (HepG-2 cells) was 33.3 µM and the IC50 (SH-SY5Y cells) was 28.6 µM. The “number of appearance of writhing reactions (visceral pain) within 30 min” value (ICR mice; 10 mg/kg by gavage) was 27 times, the “number of appearance of writhing reactions (visceral pain) within 30 min” value (ICR mice; 20 mg/kg by gavage) was 21 times and the “Licking claw time (s) in phase II (10-60 min)” value (“Licking claw time (s)” below) (C57BL/6 mice; 1 mg/kg intraperitoneal) was 259.97 ± 64.44 s. The “Licking claw time (s)” value (C57BL/6 mice; 5 mg/kg intraperitoneal) was 230.49 ± 41.31 s, the “Licking claw time (s)” value (C57BL/6 mice; 10 mg/kg intraperitoneal) was 162.83 ± 36.27 s and the “Licking claw time (s)” value (C57BL/6 mice; 20 mg/kg intraperitoneal) was 72.27 ± 17.29 s. The “ED50 in phase II pain” value (C57BL/6 mice; intraperitoneal, dose that decreases licking time by half vs blank control) was 8.00 mg/kg.
